Measured values published in US20070149408A1, “METHOD FOR REDUCING NITROSAMINES IN TOBACCO” (UNIVERSITY OF KENTUCKY RESEARCH FOUNDATION, priority 2005, published 2007).

How the values were obtained:
whole tobacco leaf [1] = test: Total TSNA in cured tobacco, ferulic acid, ethanol and surfactant sprayed two days before harvest (Example 4); conditions: ferulic acid + ethanol + DE FAC 820, versus untreated (Table 4)
Method: Tobacco plants were treated by spraying them in the field with an aqueous solution comprising 0.25% wt. by vol. of ferulic acid, 5 gallons ethanol (95%), 250 gallons water and 0.25% by vol. of a non-ionic surfactant (DE FAC 820). This gave a 2% ethanol solution. Fifty (50) gallons of aqueous solution was applied per acre for the treated plants.
Treated and non-treated tobacco was harvested and cured in a conventional dark fire tobacco barn with manual vents for aeration for 6 weeks, one week of natural ventilation followed by five weeks of wood fire curing in a conventional manner. The curing was conducted in a conventional curing barn as is typically found in the dark tobacco production regions of Kentucky and Tennessee. Both the treated and untreated tobacco were the same variety and harvested at the same time.
Random leaves were removed from the cured treated and cured untreated tobacco and TSNA was measured in accordance with Example 1.

whole tobacco leaf [2] = test: TSNA in cured tobacco, ferulic acid added to the smoke during fire curing (Example 6); conditions: ferulic acid in wood smoke, versus untreated (Table 6)
Source text: In a conventional dark fire tobacco barn, wood lumber was laid on the floor of the barn and sawdust was spread on top of the wood. The lumber was set on fire and the sawdust smoldered and generated wood smoke. Ferulic acid, solid granular, from a conventional source, was sprinkled over the top of the sawdust at the start of the fire curing process and was applied in an amount of one pound per acre of tobacco in the barn, about 5000 tobacco plants. The fire curing started one or two days after the tobacco was harvested and hung in the barn. The ferulic acid lasted about one week on the sawdust during the fire curing.
The fire curing was conducted for a total of 40 days.
After curing, random leaves were collected from the treated tobacco and from the untreated tobacco. Both treated and untreated tobacco were of the same variety and came from two different barns. The untreated tobacco came from a different barn but was fire cured in the same manner as the treated tobacco except for the ferulic acid treatment.

## COc1cc(C=CC(=O)O)ccc1O [ferulic acid, 4-hydroxy-3-methoxy cinnamic acid]
Whole tobacco leaf [1]
  reduction in TSNA: 85%
Whole tobacco leaf [2]
  reduction in TSNA: 35%
